Assay results reported in patent US9422308B2, “Derivatives of docosahexaenoylethanolamide and uses thereof” (The United States of America, as represented by the …, priority 2012, dated 2016).

Columns and labels:
FAAH = molecular target: T1, FAAH (Homo sapiens, UniProt O00519); assay: time course FAAH enzyme assay; assay type: in vitro ADME; details: for % remaining: 1 mM, pH 9
T1 sequence (O00519 1-579): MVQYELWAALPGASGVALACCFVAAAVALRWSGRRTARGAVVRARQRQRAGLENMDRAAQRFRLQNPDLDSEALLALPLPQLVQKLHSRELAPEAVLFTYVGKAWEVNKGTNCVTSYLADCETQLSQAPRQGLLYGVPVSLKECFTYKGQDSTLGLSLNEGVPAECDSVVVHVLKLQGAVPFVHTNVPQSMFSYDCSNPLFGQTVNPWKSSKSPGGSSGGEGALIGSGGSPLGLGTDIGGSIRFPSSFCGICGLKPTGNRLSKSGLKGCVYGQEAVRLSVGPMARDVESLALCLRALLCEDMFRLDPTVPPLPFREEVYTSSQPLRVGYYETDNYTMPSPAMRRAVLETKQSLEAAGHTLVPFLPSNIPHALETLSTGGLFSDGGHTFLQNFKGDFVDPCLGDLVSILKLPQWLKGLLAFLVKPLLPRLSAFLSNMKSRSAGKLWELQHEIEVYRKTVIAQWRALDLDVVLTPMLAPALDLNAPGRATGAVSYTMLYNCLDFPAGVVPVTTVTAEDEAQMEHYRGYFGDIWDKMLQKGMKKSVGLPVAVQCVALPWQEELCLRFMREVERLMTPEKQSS
Experimental: Method development: The signal was optimized for each compound by ESI positive or negative ionization mode. A MS2 SIM scan was used to optimize the precursor ion and a product ion analysis was used to identify the best fragment for analysis and to optimize the collision energy.
Analysis: Samples were analyzed by LC/MS/MS using a API 3000 coupled with an Shimadzu HPLC and a CTC PAL chilled autosampler, all […] controlled by Analyst software (ABI). After separation on a C18 reverse phase HPLC column (Agilent, Waters, or equivalent). Mobile phase A was 0.1% AcOH in water. Mobile phase B was 0.1% AcOH in methanol. The flow rate was 0.6 mL/min. The gradient program included a 0.5 min hold at 30% B (the starting conditions), followed by a gradient to 100% B over 2.5 min and a 1 min hold at 100% B. The column was then returned to starting conditions and equilibrated over 1.25 min.
Assay Protocol: Assays were performed at 37° C. at pH=9.0 and involved the use of 0.1 U of FAAH. […] Reaction was terminated after an appropriate time by using protein precipitation treatment with acetonitrile (3:1, v/v).

[1] = test system: fatty acid amide hydrolase (FAAH); assay: incubation with WT or FAAH KO brain homogenates (susceptibility to FAAH hydrolysis); assay type: in vitro ADME, mouse; details: for susceptibility to hydrolysis by FAAH: WT or FAAH KO brain homogenates
Experimental: Wildtype (WT) or FAAH knock out (KO) brain homogenates were incubated with either A8 or synaptamide.
Incubation of synaptamide and A8 with brain homogenates: Make 5× pH 9 assay buffer (625 mM Tris, 5 mM EDTA). Collect fresh brains of C57 mice into cold 1× pH 9 assay buffer. Homogenize entire brain (including cerebellum) in 2 mL of cold buffer using a conical Potter-Evehjem type tissue homogenizer driven by a motor. Perform incubations in washed and silanized 10 mL glass test tubes at 37° C. for 1 hour. Add 10 pmoles each of A8 and d4-synaptamide (5 uL of a 2 pmol/uL mixture of A8 and d4-synaptamide in DMSO). See Kim et al., Prostaglandins & Other Lipid Mediators, 96(1-4):114-120 (2011) for the structure of d4-synaptamide (d4-DEA). Add 500 μL of brain homogenate per incubation tube. Vortex gently. Incubate at 37° C. in a water bath, shaking at 42 rpm for 1 hour. Stop reaction by adding 1 mL chloroform, 1 mL methanol, 1 mL methanol/BHT (50 mg/L BHT) and 300 μL water. Vortex to mix, store under an inert gas at −80° C. until. Ready to extract via the method of Bligh and Dyer, Canadian J. Biochem. 37: 911-917, 1959.
Extraction procedure: Incubations are already in the 1st Bligh-Dyer ration (0.8:1:2 aqueous:CHCl3:MeOH). Work on wet ice. Add 10 pmoles of d4-anandamide which will be used as an internal standard to give relative quantification of the unhydrolyzed d4-synaptamide and A8. Add 1 mL water and 1 mL CHCl3 to each tube, purge with nitrogen, vortex vigorously 1 minute. Centrifuge 5 minutes at 4° C.; 3,000 rpm (Sorvall RTH 750 rotor) to separate phases. Extract the organic phase (bottom layer) to a clean silanized 10 mL test tube using glass Pasteur pipette. Avoid getting any aqueous phase in extract. Add 2 mL CHCl3 to the aqueous phase, purge with nitrogen and vortex 1 minute. […] Cap vials under argon and store at −80° C. until ready to analyze via HPLC-MS.
Ten pmoles each of A8 and d4-synaptamide were incubated with WT or FAAH KO brain homogenates or buffer (B, […]). Relative quantitation was performed via SRM mass spectrometry.

FAAH KO mice = assay: beam walk test after traumatic brain injury by controlled cortical impact; assay type: in vivo; details: one-time i.p. 25 mg/kg at 15 min after TBI (CCI), from the day 4 after TBI, FIG. 8
Experimental: For the beam walk test, mice were trained to traverse a narrow beam before injury caused by controlled cortical impact (CCI), and the number of hind foot slips after injury was observed over the course of recovery.
A8 has increased resistance to FAAH in comparison to synaptamide but still does show some susceptibility to hydrolysis by FAAH. The effects of A8 in FAAH KO mice were tested by one-time i.p. administration of A8 (25 mg/kg) at 15 min after traumatic brain injury (TBI) inflicted by controlled cortical impact (CCI).

- % remaining (FAAH; 0 h): 99%
- % remaining (FAAH; 0.5 h): 101%
- % remaining (FAAH; 1 h): 85%
- percent recovery of compound after incubation with brain homogenate ([1]; WT and FAAH KO brain homogenate, FIG. 5, compared with synaptamide): higher than synaptamide
SMILES: CC/C=C\C/C=C\C/C=C\C/C=C\C/C=C\C/C=C\CCC(=O)NCC(C)(C)O [Compound 1, (4Z,7Z,10Z,13Z,16Z,19Z)—N-(2-hydroxy-2-methylpropyl)docosa-4,7,10,13,16,19-hexaenamide]
- susceptibility to hydrolysis by FAAH (FAAH): less susceptible to hydrolysis by FAAH than synaptamide or AEA
- susceptibility to hydrolysis by FAAH ([1]; Example 3, FIG. 5): less susceptible to hydrolysis by FAAH than synaptamide
- susceptibility to hydrolysis by FAAH ([1]; Example 4, 10 pmoles, pH 9, 37° C., 1 hour, FIG. 6, vs d4-synaptamide): less susceptible to hydrolysis by FAAH than the deuterated synaptamide
- TBI-induced behavioral deficit (beam walk test, hind foot slips) (FAAH KO mice): significant improvement
